In assay [1] the target is T1, Mineralocorticoid receptor (Homo sapiens, UniProt P08235).
T1 sequence (P08235 whole entry): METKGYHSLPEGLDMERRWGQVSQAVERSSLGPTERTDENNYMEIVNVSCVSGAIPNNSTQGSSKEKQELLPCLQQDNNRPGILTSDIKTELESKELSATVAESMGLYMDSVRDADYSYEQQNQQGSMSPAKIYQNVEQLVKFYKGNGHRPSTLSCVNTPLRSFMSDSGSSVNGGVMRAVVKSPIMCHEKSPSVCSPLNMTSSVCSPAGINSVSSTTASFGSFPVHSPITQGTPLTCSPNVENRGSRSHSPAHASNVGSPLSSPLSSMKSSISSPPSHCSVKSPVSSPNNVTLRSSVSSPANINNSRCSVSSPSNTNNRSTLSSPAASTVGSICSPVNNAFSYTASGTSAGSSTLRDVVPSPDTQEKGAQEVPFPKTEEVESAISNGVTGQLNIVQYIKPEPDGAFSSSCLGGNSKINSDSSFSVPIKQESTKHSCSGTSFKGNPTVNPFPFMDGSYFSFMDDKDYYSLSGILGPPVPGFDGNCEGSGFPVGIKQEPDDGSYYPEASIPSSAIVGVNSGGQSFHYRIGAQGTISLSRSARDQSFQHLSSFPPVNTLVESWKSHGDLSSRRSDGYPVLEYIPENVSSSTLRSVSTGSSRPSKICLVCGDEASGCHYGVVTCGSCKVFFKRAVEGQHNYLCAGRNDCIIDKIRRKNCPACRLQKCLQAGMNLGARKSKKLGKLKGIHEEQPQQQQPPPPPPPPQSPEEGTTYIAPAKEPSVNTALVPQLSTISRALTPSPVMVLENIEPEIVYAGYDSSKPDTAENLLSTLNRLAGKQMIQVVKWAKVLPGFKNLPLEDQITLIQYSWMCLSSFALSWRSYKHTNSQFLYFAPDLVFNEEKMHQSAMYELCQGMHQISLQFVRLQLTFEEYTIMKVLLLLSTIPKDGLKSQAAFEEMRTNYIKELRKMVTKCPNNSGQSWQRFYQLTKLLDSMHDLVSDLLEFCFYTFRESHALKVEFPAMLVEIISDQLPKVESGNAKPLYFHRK
The assay is described as follows: Affinity for recombinant Mineralocorticoid receptor. The settings on record: read-out: Kd app.

Assay [2] addresses T2, Mineralocorticoid receptor (Homo sapiens) (UniProt P08235).
T2 sequence (whole entry): T1 sequence (P08235 whole entry)
The conditions noted are these: CV-1.
Description: Transcriptional activation activity in CV-1 cells expressing mineralocorticoid receptor

Assay [3] deals with T1, Mineralocorticoid receptor. Briefly: Inhibition of 10e-9 M aldosterone activity in CV-1 cells expressing mineralocorticoid receptor. Type of assay: functional, cell-based.

The values below come from ChEMBL document CHEMBL1129684, “New steroidal diazo ketones as potential photoaffinity labeling reagents for the mineralocorticoid receptor: synthesis and biological activities” (J Med Chem, 1996).

Each structure is given as a SMILES string.

Consider `CC12CCC(=O)C=C1CCC1C2CCC2(C)C(C(=O)C=[N+]=[N-])CCC12` (stereo unspecified), for which the Kd in assay [1] turned out to be 0.74 nM. The same compound yielded an ED50 in assay [2] of 6 nM.

As for `C[C@@H](O)C1CC[C@H]2[C@@H]3CCC4=CC(=O)CCC4(C)[C@H]3CCC12C(=O)C=[N+]=[N-]` (stereo partly specified), the Kd in assay [1] was 20 nM. This compound also displayed a concentration for half-maximal inhibition (IC50) in assay [3] of 900 nM.

Take `CC(=O)C1CC[C@H]2[C@@H]3CCC4=CC(=O)CCC4(C)[C@H]3CCC12C(=O)[CH-][N+]#N` (stereo partly specified): the Kd in assay [1] turned out to be 20 nM. Besides, half-maximal inhibition in assay [3] (IC50) was put at 700 nM.

Broadly, the IC50 is the concentration at which inhibition is half-maximal. A high value points to weaker potency.
